According to paper PMC12209699, “Waxy‐ or Putty‐Like Materials as a Novel Drug Preparation for Synthetic Cannabinoid Receptor Agonists: Detection in Prisons and In Vitro Cannabinoid Receptor Activity” (Drug Testing and Analysis, 2024):
Read-outs that look alike come from different tables or passages of the source.

Legend:
[1] = system: CB1; conditions: ref [4], [60], cited from earlier work; for EC50: earlier in vitro data, read-out: EC 50 at CB1; for E max at CB1: normalized to CP55,940
[2] = target: CB1 receptor (Homo sapiens, UniProt P21554); test: NanoBiT βarr2 recruitment bioassay at CB1 (HEK 293T cells stably expressing CB1‐βarr2); conditions: for E max at CB1: normalized to E max of CP55,940 (set at 100%)
CB1 receptor, sequence (P21554 whole entry): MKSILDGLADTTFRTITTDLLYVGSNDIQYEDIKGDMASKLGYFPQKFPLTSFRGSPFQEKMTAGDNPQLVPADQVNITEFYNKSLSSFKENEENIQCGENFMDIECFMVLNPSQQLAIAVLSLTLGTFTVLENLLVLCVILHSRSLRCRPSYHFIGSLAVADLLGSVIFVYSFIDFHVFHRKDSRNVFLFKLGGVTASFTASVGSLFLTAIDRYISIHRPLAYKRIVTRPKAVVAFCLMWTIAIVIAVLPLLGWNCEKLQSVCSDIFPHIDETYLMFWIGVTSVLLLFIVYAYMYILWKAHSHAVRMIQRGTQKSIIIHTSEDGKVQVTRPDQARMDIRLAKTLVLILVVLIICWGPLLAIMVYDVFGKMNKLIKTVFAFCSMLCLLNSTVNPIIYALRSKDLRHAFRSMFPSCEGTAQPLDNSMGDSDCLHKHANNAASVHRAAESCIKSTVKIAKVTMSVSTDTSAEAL
CB1 receptor, sequence (P32121 whole entry partner): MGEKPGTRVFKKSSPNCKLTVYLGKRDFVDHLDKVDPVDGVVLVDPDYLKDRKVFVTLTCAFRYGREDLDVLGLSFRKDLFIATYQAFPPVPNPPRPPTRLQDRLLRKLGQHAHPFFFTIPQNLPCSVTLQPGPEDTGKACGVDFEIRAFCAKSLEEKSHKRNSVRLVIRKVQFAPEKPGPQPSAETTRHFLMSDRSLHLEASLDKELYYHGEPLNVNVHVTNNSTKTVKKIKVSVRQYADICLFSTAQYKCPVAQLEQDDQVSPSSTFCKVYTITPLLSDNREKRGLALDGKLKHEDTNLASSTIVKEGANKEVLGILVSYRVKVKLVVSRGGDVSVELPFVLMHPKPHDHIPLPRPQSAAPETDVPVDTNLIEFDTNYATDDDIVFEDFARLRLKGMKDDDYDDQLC

[3] = target: CB2 receptor (Homo sapiens, UniProt P34972); test: NanoBiT βarr2 recruitment bioassay at CB2 (HEK 293T cells stably expressing CB2‐βarr2); conditions: for E max at CB2: normalized to E max of CP55,940 (set at 100%)
CB2 receptor, sequence (P34972 whole entry): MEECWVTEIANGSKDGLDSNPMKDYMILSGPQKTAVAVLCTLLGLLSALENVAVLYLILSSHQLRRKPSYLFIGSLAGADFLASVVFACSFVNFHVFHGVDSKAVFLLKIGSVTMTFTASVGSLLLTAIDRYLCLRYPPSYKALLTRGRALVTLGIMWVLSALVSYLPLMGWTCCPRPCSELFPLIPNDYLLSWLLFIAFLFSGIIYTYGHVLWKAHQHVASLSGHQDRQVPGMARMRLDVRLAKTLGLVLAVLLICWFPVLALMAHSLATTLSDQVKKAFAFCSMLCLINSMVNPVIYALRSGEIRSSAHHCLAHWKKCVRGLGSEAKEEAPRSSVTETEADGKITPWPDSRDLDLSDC
CB2 receptor, sequence (P32121 whole entry partner): as the sequence (P32121 whole entry partner) above

Compound	EC50 [1]	E max at CB1 [1]	E max at CB1 ([2]; interval in brackets)	EC50 ([2]; read-out: EC 50 at CB1, βarr2 recruitment, three‐parameter logistic fit, interval in brackets)	E max at CB2 ([3]; interval in brackets)	EC50 ([3]; read-out: EC 50 at CB2, βarr2 recruitment, three‐parameter logistic fit, interval in brackets)	EC50 [2]	EC50 [3]
CCCCn1nc(C(=O)N[C@H](C(N)=O)C(C)(C)C)c2ccccc21 [ADB‐BUTINACA]	19 nM	728%	–	–	–	–	–	–
CCCCCn1cc(C(=O)c2cccc3ccccc23)c2ccccc21 [JWH‐018]	–	–	342 (300–385) %	18.8 nM	71.9 (66–77.9) %	5.9 nM	–	–
COC(=O)[C@@H](NC(=O)c1n[nH]c2ccccc12)C(C)(C)C [MDMB‐INACA]	–	–	268 (233–305) %	–	150 (134–167) %	–	6810 nM	55.2 nM
C=CCCCn1nc(C(=O)N[C@H](C(=O)OC)C(C)(C)C)c2ccccc21 [MDMB‐4en‐PINACA]	1.88 nM	679%	–	–	–	–	–	–
